One data set deals with D(1A) dopamine receptor (Homo sapiens, UniProt P21728). Put plainly: DRUGMATRIX: Dopamine D1 radioligand binding (ligand: [3H] SCH-23390). In kind it is cell membranes, Membrane. The following applies: cho; Not Active = under 50% inhibition at 10 µM.
Data set [1] has as its target Sodium-dependent noradrenaline transporter (Homo sapiens, UniProt P23975). Put plainly: DRUGMATRIX: Norepinephrine Transporter radioligand binding (ligand: [125I] RTI-55). In kind it is cell membranes, MDCK, Membrane. The settings on record: Not Active = under 50% inhibition at 10 µM.
In another data set the target is T1, Substance-K receptor (Homo sapiens, UniProt P21452). Also: in other assays of this panel Not Active means under 50% inhibition at 10 µM.
T1 sequence (P21452 whole entry): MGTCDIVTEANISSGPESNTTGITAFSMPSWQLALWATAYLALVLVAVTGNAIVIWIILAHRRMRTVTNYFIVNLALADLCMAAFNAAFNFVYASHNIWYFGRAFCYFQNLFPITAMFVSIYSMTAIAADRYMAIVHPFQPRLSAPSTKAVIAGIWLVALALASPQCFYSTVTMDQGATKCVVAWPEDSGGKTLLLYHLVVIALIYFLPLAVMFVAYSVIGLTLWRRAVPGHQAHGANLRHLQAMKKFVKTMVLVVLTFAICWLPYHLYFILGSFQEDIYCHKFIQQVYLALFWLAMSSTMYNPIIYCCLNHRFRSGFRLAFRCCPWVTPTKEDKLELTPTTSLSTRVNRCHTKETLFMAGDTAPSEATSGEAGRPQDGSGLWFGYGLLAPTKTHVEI
It is filed as cell membranes, CHO, Membrane. The settings on record: cho.

Data set [2] has as its target C-C chemokine receptor type 2 (Homo sapiens, UniProt P41597). In kind it is cell membranes, CHO-K1, Membrane. The settings on record: cho-k1. Also: in other assays of this panel Not Active means under 50% inhibition at 10 µM.
A further data set concerns the target Cytochrome P450 2E1 (Homo sapiens, UniProt P05181). The settings on record: bti-tn-5b1-4. Also: in other assays of this panel Not Active means under 50% inhibition at 10 µM.
Data set [3] concerns the target Receptor tyrosine-protein kinase erbB-2 (Homo sapiens, UniProt P04626). The experiment in a line: biochemical. In kind it is cell-based, Insect cells. The following applies: insect cells.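 Also: inhibition of HER2 kinase enzyme activity, measured with Poly(Glu:Tyr) as the phosphorylation substrate; in other assays of this panel Not Active means under 50% inhibition at 10 µM.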
Data set [4] addresses T2, 5-hydroxytryptamine receptor 1A (Rattus norvegicus, UniProt P19327).
T2 sequence (P19327 whole entry): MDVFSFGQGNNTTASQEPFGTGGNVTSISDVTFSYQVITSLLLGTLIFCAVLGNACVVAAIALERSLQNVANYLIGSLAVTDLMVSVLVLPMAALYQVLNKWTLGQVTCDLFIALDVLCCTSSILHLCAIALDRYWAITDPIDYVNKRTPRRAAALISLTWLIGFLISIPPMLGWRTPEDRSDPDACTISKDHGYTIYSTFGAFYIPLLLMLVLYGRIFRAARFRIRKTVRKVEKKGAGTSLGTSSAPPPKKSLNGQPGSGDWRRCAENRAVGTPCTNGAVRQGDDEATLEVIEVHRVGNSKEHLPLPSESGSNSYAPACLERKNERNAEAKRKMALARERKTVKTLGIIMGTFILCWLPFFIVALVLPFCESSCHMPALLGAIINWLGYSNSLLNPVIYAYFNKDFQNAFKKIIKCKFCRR
In kind it is cell membranes, Membrane. The settings on record: cho-k1.

The target in the next data set is Glycine receptor (Rattus norvegicus, UniProt P22771+P24524+P07727+P20781). It is filed as cell membranes, Wistar, Spinal cord, Membrane. Also: in other assays of this panel Not Active means under 50% inhibition at 10 µM.
A further data set addresses T3, Neutrophil elastase (Homo sapiens, UniProt P08246).
T3 sequence (P08246 whole entry): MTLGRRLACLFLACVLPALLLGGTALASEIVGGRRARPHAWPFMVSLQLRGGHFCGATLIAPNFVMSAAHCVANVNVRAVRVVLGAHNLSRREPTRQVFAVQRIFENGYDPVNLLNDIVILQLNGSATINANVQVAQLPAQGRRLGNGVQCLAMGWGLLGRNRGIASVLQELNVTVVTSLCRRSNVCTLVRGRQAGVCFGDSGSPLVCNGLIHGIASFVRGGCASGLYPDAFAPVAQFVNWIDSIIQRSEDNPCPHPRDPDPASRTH
In kind it is tissue-based.

The target in another data set is T4, Progesterone receptor (Bos taurus, UniProt Q690N0).
T4 sequence (Q690N0 whole entry): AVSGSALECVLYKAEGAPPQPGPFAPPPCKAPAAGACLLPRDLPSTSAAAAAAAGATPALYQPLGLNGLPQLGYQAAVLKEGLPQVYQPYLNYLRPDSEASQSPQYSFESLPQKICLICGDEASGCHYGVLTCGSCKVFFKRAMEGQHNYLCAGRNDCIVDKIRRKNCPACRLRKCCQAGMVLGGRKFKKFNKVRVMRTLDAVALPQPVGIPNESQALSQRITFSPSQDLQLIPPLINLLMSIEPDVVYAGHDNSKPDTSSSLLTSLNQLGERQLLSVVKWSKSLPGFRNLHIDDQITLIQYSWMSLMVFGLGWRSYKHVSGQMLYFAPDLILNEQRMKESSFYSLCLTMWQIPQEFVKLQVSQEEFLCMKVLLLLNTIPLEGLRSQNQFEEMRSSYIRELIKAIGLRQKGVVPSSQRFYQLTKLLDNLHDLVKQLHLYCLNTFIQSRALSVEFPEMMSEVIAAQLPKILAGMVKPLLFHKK
Put plainly: DRUGMATRIX: Progesterone radioligand binding (ligand: [3H] R-5020). In kind it is tissue-based, Uterus. The following applies: Not Active = under 50% inhibition at 10 µM.

Data set [5] deals with T5, Vasoactive intestinal polypeptide receptor 1 (Homo sapiens, UniProt P32241).
T5 sequence (P32241 whole entry): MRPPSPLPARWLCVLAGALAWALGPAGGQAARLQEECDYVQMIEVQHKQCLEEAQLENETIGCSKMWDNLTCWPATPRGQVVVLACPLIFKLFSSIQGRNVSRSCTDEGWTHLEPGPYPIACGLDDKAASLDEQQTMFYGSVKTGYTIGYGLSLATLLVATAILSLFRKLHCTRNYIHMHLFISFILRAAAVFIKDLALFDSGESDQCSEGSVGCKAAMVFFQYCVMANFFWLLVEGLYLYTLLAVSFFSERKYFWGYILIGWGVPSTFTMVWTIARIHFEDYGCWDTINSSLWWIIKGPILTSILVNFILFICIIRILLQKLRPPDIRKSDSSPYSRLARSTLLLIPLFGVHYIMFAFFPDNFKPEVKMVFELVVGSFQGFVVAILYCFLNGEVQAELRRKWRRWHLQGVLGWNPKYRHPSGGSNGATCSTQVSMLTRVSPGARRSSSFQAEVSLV
In kind it is cell membranes, Membrane. The settings on record: ht-29.

Data set [6] can be described thus: DRUGMATRIX: Glutamate, NMDA, Phencyclidine radioligand binding (ligand: [3H] TCP). In kind it is cell membranes, Rattus norvegicus, Wistar, Cerebral cortex, Membrane. The following applies: Not Active = under 50% inhibition at 10 µM.

Each structure is given as a SMILES string.

Sequence of C-C chemokine receptor type 2 (P41597 whole entry): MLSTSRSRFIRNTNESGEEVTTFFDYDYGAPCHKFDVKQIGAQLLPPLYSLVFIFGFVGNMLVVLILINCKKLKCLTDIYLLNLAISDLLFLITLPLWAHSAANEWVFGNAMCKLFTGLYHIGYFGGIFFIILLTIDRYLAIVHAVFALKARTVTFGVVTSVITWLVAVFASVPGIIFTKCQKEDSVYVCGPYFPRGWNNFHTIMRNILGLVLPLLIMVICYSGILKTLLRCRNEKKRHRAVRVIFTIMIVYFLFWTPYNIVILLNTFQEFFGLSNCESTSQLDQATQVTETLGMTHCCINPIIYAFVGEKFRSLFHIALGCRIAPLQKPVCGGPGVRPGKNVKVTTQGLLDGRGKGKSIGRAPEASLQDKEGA
Sequence of Sodium-dependent noradrenaline transporter (P23975 whole entry): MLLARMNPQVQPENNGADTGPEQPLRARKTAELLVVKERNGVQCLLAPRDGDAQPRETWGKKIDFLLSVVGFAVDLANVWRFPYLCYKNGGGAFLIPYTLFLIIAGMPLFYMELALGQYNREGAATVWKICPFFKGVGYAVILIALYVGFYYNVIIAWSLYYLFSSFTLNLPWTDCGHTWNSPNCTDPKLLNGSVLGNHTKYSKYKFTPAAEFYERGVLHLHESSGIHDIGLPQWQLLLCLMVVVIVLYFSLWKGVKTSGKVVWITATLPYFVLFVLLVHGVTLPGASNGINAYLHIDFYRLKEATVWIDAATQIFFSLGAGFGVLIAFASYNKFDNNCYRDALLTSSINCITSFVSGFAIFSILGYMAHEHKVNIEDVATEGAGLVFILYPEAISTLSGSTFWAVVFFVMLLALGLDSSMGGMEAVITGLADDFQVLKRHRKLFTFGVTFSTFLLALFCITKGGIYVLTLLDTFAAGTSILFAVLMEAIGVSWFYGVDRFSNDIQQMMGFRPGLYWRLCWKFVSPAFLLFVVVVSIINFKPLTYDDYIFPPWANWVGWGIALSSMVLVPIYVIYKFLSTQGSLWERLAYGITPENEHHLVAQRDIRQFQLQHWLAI
Sequence of Cytochrome P450 2E1 (P05181 whole entry): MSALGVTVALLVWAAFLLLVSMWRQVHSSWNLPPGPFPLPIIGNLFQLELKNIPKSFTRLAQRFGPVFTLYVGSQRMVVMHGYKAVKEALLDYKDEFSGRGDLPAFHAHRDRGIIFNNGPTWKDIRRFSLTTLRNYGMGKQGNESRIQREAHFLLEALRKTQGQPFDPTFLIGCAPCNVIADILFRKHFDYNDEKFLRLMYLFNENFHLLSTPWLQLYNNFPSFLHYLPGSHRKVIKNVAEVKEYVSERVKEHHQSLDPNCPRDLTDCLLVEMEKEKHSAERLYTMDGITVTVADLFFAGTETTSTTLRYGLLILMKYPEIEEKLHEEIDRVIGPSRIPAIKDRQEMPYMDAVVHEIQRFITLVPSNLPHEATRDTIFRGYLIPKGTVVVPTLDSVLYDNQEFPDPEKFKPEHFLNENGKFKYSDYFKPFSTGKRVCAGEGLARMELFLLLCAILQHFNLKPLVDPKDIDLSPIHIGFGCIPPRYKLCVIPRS
Sequence of D(1A) dopamine receptor (P21728 whole entry): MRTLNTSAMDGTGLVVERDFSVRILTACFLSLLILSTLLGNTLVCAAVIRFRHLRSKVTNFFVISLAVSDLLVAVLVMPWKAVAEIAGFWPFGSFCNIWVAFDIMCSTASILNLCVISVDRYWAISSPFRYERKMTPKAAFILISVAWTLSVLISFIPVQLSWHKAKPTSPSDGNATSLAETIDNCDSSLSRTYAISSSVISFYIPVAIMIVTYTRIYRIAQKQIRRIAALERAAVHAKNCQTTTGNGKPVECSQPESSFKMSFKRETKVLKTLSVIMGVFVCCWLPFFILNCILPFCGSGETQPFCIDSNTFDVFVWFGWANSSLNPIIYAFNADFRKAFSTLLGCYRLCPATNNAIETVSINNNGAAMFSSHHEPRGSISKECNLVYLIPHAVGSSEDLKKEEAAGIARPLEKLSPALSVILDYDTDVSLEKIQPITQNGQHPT
Sequence of Receptor tyrosine-protein kinase erbB-2 (P04626 whole entry): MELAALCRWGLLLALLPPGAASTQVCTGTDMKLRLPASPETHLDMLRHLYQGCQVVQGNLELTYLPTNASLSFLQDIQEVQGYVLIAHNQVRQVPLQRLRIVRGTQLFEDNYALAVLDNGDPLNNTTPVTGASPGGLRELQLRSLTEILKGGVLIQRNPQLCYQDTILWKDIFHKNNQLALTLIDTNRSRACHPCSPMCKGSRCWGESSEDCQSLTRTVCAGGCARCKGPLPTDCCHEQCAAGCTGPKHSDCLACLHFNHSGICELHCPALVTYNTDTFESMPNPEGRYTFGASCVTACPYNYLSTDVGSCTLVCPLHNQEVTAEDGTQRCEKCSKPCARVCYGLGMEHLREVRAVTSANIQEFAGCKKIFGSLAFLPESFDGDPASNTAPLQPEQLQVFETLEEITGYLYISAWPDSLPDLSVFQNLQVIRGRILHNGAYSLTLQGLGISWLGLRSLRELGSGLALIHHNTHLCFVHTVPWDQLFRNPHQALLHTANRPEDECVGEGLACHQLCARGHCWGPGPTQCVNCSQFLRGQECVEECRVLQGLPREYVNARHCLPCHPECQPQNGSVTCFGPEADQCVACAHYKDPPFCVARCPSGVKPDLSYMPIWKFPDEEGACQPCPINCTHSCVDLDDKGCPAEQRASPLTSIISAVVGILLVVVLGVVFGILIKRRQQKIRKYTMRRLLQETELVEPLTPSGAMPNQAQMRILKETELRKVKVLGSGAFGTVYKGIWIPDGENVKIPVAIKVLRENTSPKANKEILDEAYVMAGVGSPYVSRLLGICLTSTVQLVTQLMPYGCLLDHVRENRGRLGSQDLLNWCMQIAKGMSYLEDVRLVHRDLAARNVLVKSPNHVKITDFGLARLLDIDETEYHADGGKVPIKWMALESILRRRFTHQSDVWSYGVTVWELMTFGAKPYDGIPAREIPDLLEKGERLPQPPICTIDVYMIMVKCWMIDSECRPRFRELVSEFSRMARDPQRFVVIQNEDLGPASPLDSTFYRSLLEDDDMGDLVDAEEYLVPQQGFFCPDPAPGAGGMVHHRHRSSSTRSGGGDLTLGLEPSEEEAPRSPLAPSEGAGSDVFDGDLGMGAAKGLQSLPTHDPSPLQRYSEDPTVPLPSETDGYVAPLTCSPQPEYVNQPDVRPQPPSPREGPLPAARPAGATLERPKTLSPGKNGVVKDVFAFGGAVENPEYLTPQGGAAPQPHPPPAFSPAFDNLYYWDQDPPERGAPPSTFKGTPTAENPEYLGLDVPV

As to `CC(=O)CC(c1ccccc1)c1c(O)c2ccccc2oc1=O` (stereo not drawn) [WARFARIN], the IC50 result (at D(1A) dopamine receptor; in data set [1] (mdck); on Substance-K receptor; in data set [2]; against Cytochrome P450 2E1; in [3]) was “Not Active” in each case. The IC50 result (in [4]; on Glycine receptor; on Neutrophil elastase; on Progesterone receptor; in data set [5]; in data set [6]) was “Not Active” throughout. Also, the Ki result (at Cytochrome P450 2E1; in data set [6]) was “Not Active” throughout.
Consider `C[C@@H](N)[C@H]1CC[C@H](C(=O)Nc2ccncc2)CC1` [Y-27632], for which the IC50 result (on D(1A) dopamine receptor; in data set [1] (mdck); against Substance-K receptor; in data set [2]; on Cytochrome P450 2E1; in data set [3]) was “Not Active” in each case. Also, the IC50 entry (in [4]; on Glycine receptor; against Neutrophil elastase; on Progesterone receptor; in data set [5]; in [6]) was “Not Active” each time. For the same compound, the Ki result (at Cytochrome P450 2E1; in data set [6]) was “Not Active” throughout.
`[Cl-].[Cl-].[Zn+2]` [ZINC CHLORIDE]: the IC50 (usually the concentration that inhibits the measured activity by half) is “Not Active” at D(1A) dopamine receptor; 7.01 µM in [1] (read-out: IC50); “Not Active” against Substance-K receptor; “Not Active” in data set [2]; “Not Active” against Cytochrome P450 2E1; “Not Active” in [3]. Besides, the IC50 entry (in data set [4]; on Glycine receptor; on Neutrophil elastase; on Progesterone receptor; in data set [5]; in data set [6]) was “Not Active” each time. For the same compound, the Ki (commonly a measure of affinity in units of concentration, obtained from inhibition or displacement) in [1] (read-out: Ki) was 6.95 µM; at Cytochrome P450 2E1, “Not Active”; in [6], “Not Active”.
